Measured values from patent publication US6379649B1, “Imidazo(1,2-a)pyridines as peripheral benzodiazepine receptor binding agents” (Australian Nuclear Science & Technology Organisation, priority 1998, dated 2002).
Where two headings read alike, the source gives them in different places.

How the values were obtained:
[1] = target: central benzodiazepine receptor; test: In vitro binding assay for central benzodiazepine receptors ([^3H]-Ro 15-1788, rat cortex membranes); conditions: rat cortex membrane / rat brain homogenates, [^3H]-Ro 15-1788 2 nM, 25° C., 45 minutes; read-out: IC50 (nM) CBR
Description: In Vitro Binding Assays for Central Benzodiazepine Receptors
Male Sprague Dawley rats are sacrificed by CO2 administration followed by cervical dislocation. Cortex is removed and placed in 20 volumes of ice-cold buffer ([…] Tris-HCl, pH 7.4) and minced finely with scissors. After homogenising the preparation will a polytron (PCU Kinematica, Bioblock, Switzerland) with one 10-second burst at a setting of 6, the suspension is centrifuged at 20,000 g for 20 minutes at 4° C. The pellets are resuspended in the previous buffer with a dounce (manual homogeniser). After the second centrifugation, the pellet is suspended in a final buffer (50 nM Tris/HCl, 0.32M sucrose, pH 7.4) to yield an appropriate protein concentration. Protein measurements are made by Lowry's method using bovine serum albumin as standard.
Non-specific binding is determined by blocking with cold Flumazenil (20 μM). Incubation is terminated by rapid filtration through Whatman GF/B glass fiber. Each sample tube and filter is immediately washed with 3 aliquots of 5 mL ice-cold […] Tris/HCl at pH 7.4. Filters are counted with a β-scintillation counter (Packard) to measure the amount of bound radioactivity. Ki and IC50 are calculated by EBDA/Ligand, iterative non-linear least squares curve-fitting programs (G. A. McPherson, J. Pharmacol. Methods 14, 213-228 (1985)).

[2] = target: peripheral benzodiazepine receptor (Rattus norvegicus, UniProt P16257); test: In vitro binding assay for peripheral benzodiazepine receptors ([^3H]-PK11195, rat kidney membranes); parameters: diluted kidney membrane preparation; from tissue; host or cells: rat kidney membranes (Sprague Dawley)
Description: In Vitro Binding Assays for Peripheral Benzodiazepine Receptors
Male Sprague Dawley rats are sacrificed by CO2 administration followed by cervical dislocation. Kidneys are removed and placed in 20 volumes of ice-cold buffer ([…] Tris-HCl, pH 7.4) and minced finely with scissors. After homogenising the preparation with a polytron (PCU Kintematica, Bioblock, Switzerland) with one 10-second burst at a setting of 10, the suspension is centrifuged at 49,000 g for 15 minutes at 4° C. The pellets are resuspended in the previous buffer with a dounce (manual homogeniser) to yield an appropriate protein concentration. Protein measurements are made by Lowry's method using bovine serum albumin as standard.
Non-specific binding is determined by blocking with cold PK11195 (10 μM). Incubation is terminated by rapid filtration through Whatman GF/B glass fiber. Each sample tube and filter is immediately washed with 3 aliquots of 5 mL ice-cold […] Tris/HCl at pH 7.4. Filters are counted with a β-scintillation counter (Packard) to measure the amount of bound radioactivity. Ki and IC50 are calculated by EBDA/Ligand, iterative non-linear least squares curve-fitting programs.

[3] = In vivo biodistribution of radiolabelled compounds in rats
Source text: In vivo biodistribution of radiolabelled compounds of the invention indicated high uptake in the tissues which have known PBR sites. Tables 2 to 4 show the biodistribution of the compounds of Examples 1-3, in which the iodine atom is radiolabelled, when administered to rats.

Chain of peripheral benzodiazepine receptor (P16257 whole entry): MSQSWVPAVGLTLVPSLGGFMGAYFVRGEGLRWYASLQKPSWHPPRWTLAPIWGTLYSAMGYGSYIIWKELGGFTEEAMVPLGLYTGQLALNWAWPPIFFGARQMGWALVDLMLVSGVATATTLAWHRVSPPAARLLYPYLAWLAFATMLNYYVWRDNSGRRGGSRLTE

Cc1ccc2nc(-c3ccc(I)cc3)c(CC(=O)N(C)C)n2c1 [E, 6-methyl-2-(4′-iodophenyl)imidazo[1,2-a]pyridine-3-(N,N-dimethyl)acetamide, reference compound]
IC50 [1]: 155 nM | IC50 [2]: 176 nM

CCN(CC)C(=O)Cc1c(-c2ccc(I)cc2)nc2ccc(Cl)cn12 [Example 3, 6-chloro-2-(4′-iodophenyl)-imidazo[1,2-a]pyridine-3-(N,N-diethyl)acetamide]
IC50 [1]: > 1000 nM | IC50 [2]: < 0.01 nM

CCCCN(C)C(=O)Cc1c(-c2ccc(I)cc2)nc2ccc(Cl)cn12 [Example 6, 6chloro-2-(4′-iodophenyl)-imidazo[1,2-a]pyridine-3-(N-methyl, N-butyl)-acetamide]
IC50 [1]: > 1000 nM | IC50 ([2]; rat kidney membrane, [^3H]-PK11195 2 nM, 4° C., 1 hour, read-out: IC50 (nM) PBR): 266 nM

CCN(CC)C(=O)Cc1c(-c2ccc([123I])cc2)nc2ccc(Cl)cn12 [^123-I Example 3]
Biodistribution (% ID/g organ) Adrenals ([3]; 5 Min): 2.11 ± 0.12 % ID/g organ | Biodistribution (% ID/g organ) Adrenals ([3]; 15 Min): 2.03 ± 0.8 % ID/g organ | Biodistribution (% ID/g organ) Adrenals ([3]; 24 Hrs): 4.56 ± 0.74 % ID/g organ | Biodistribution (% ID/g organ) Adrenals ([3]; 30 Min): 2.42 ± 0.36 % ID/g organ | Biodistribution (% ID/g organ) Adrenals ([3]; 48 Hrs): 4.87 ± 0.55 % ID/g organ | Biodistribution (% ID/g organ) Adrenals ([3]; 60 Min): 2.83 ± 0.41 % ID/g organ | Biodistribution (% ID/g organ) Adrenals ([3]; 180 Min): 4.1 ± 0.80 % ID/g organ | Biodistribution (% ID/g organ) Adrenals ([3]; 240 Min): 4.32 ± 0.60 % ID/g organ | Biodistribution (% ID/g organ) Adrenals ([3]; 360 Min): 5.28 ± 0.95 % ID/g organ | Biodistribution (% ID/g organ) Adrenals ([3]; 480 Min): 4.22 ± 0.12 % ID/g organ | Biodistribution (% ID/g organ) Blood ([3]; 5 Min): 0.46 ± 0.08 % ID/g organ | Biodistribution (% ID/g organ) Blood ([3]; 15 Min): 0.16 ± 0.02 % ID/g organ | Biodistribution (% ID/g organ) Blood ([3]; 24 Hrs): 0.02 ± 0.001 % ID/g organ | Biodistribution (% ID/g organ) Blood ([3]; 30 Min): 0.12 ± 0.03 % ID/g organ | Biodistribution (% ID/g organ) Blood ([3]; 48 Hrs): 0.01 ± 0.001 % ID/g organ | Biodistribution (% ID/g organ) Blood ([3]; 60 Min): 0.06 ± 0.02 % ID/g organ | Biodistribution (% ID/g organ) Blood ([3]; 180 Min): 0.04 ± 0.001 % ID/g organ | Biodistribution (% ID/g organ) Blood ([3]; 240 Min): 0.05 ± 0.001 % ID/g organ | Biodistribution (% ID/g organ) Blood ([3]; 360 Min): 0.04 ± 0.001 % ID/g organ | Biodistribution (% ID/g organ) Blood ([3]; 480 Min): 0.03 ± 0.001 % ID/g organ | Biodistribution (% ID/g organ) Brain ([3]; 5 Min): 0.33 ± 0.04 % ID/g organ | Biodistribution (% ID/g organ) Brain ([3]; 15 Min): 0.2 ± 0.02 % ID/g organ | Biodistribution (% ID/g organ) Brain ([3]; 24 Hrs): 0.01 ± 0.001 % ID/g organ | Biodistribution (% ID/g organ) Brain ([3]; 30 Min): 0.15 ± 0.01 % ID/g organ | Biodistribution (% ID/g organ) Brain ([3]; 48 Hrs): 0.01 ± 0.001 % ID/g organ | Biodistribution (% ID/g organ) Brain ([3]; 60 Min): 0.08 ± 0.02 % ID/g organ | Biodistribution (% ID/g organ) Brain ([3]; 180 Min): 0.05 ± 0.001 % ID/g organ | Biodistribution (% ID/g organ) Brain ([3]; 240 Min): 0.05 ± 0.01 % ID/g organ | Biodistribution (% ID/g organ) Brain ([3]; 360 Min): 0.05 ± 0.02 % ID/g organ | Biodistribution (% ID/g organ) Brain ([3]; 480 Min): 0.03 ± 0.001 % ID/g organ | Biodistribution (% ID/g organ) Heart ([3]; 5 Min): 2.63 ± 0.30 % ID/g organ | Biodistribution (% ID/g organ) Heart ([3]; 15 Min): 2.39 ± 035 % ID/g organ | Biodistribution (% ID/g organ) Heart ([3]; 24 Hrs): 0.39 ± 0.03 % ID/g organ | Biodistribution (% ID/g organ) Heart ([3]; 30 Min): 2.44 ± 0.28 % ID/g organ | Biodistribution (% ID/g organ) Heart ([3]; 48 Hrs): 0.17 ± 0.002 % ID/g organ | Biodistribution (% ID/g organ) Heart ([3]; 60 Min): 2.65 ± 0.63 % ID/g organ | Biodistribution (% ID/g organ) Heart ([3]; 180 Min): 2.59 ± 0.16 % ID/g organ | Biodistribution (% ID/g organ) Heart ([3]; 240 Min): 2.49 ± 0.22 % ID/g organ | Biodistribution (% ID/g organ) Heart ([3]; 360 Min): 2.13 ± 0.45 % ID/g organ | Biodistribution (% ID/g organ) Heart ([3]; 480 Min): 1.48 ± 0.12 % ID/g organ | Biodistribution (% ID/g organ) Kidney ([3]; 5 Min): 1.73 ± 0.38 % ID/g organ | Biodistribution (% ID/g organ) Kidney ([3]; 15 Min): 2.11 ± 0.31 % ID/g organ | Biodistribution (% ID/g organ) Kidney ([3]; 24 Hrs): 0.25 ± 0.03 % ID/g organ | Biodistribution (% ID/g organ) Kidney ([3]; 30 Min): 2.31 ± 0.02 % ID/g organ | Biodistribution (% ID/g organ) Kidney ([3]; 48 Hrs): 0.12 ± 0.01 % ID/g organ | Biodistribution (% ID/g organ) Kidney ([3]; 60 Min): 1.87 ± 0.66 % ID/g organ | Biodistribution (% ID/g organ) Kidney ([3]; 180 Min): 1.71 ± 0.17 % ID/g organ | Biodistribution (% ID/g organ) Kidney ([3]; 240 Min): 1.37 ± 0.18 % ID/g organ | Biodistribution (% ID/g organ) Kidney ([3]; 360 Min): 1.43 ± 0.25 % ID/g organ | Biodistribution (% ID/g organ) Kidney ([3]; 480 Min): 0.87 ± 0.15 % ID/g organ | Biodistribution (% ID/g organ) Liver ([3]; 5 Min): 0.87 ± 0.13 % ID/g organ | Biodistribution (% ID/g organ) Liver ([3]; 15 Min): 0.93 ± 0.06 % ID/g organ | Biodistribution (% ID/g organ) Liver ([3]; 24 Hrs): 0.06 ± 0.001 % ID/g organ | Biodistribution (% ID/g organ) Liver ([3]; 30 Min): 0.76 ± 0.01 % ID/g organ | Biodistribution (% ID/g organ) Liver ([3]; 48 Hrs): 0.04 ± 0.001 % ID/g organ | Biodistribution (% ID/g organ) Liver ([3]; 60 Min): 0.41 ± 0.14 % ID/g organ | Biodistribution (% ID/g organ) Liver ([3]; 180 Min): 0.28 ± 0.02 % ID/g organ | Biodistribution (% ID/g organ) Liver ([3]; 240 Min): 0.23 ± 0.03 % ID/g organ | Biodistribution (% ID/g organ) Liver ([3]; 360 Min): 0.23 ± 0.02 % ID/g organ | Biodistribution (% ID/g organ) Liver ([3]; 480 Min): 0.16 ± 0.01 % ID/g organ | Biodistribution (% ID/g organ) Lungs ([3]; 5 Min): 13.16 ± 1.24 % ID/g organ | Biodistribution (% ID/g organ) Lungs ([3]; 15 Min): 6.98 ± 1.87 % ID/g organ | Biodistribution (% ID/g organ) Lungs ([3]; 24 Hrs): 0.31 ± 0.06 % ID/g organ | Biodistribution (% ID/g organ) Lungs ([3]; 30 Min): 4.91 ± 0.22 % ID/g organ | Biodistribution (% ID/g organ) Lungs ([3]; 48 Hrs): 0.17 ± 0.02 % ID/g organ | Biodistribution (% ID/g organ) Lungs ([3]; 60 Min): 2.76 ± 0.80 % ID/g organ | Biodistribution (% ID/g organ) Lungs ([3]; 180 Min): 1.63 ± 0.07 % ID/g organ | Biodistribution (% ID/g organ) Lungs ([3]; 240 Min): 1.38 ± 0.09 % ID/g organ | Biodistribution (% ID/g organ) Lungs ([3]; 360 Min): 1.21 ± 0.27 % ID/g organ | Biodistribution (% ID/g organ) Lungs ([3]; 480 Min): 0.75 ± 0.07 % ID/g organ | Biodistribution (% ID/g organ) Olfactive bulbs ([3]; 5 Min): 0.44 ± 0.08 % ID/g organ | Biodistribution (% ID/g organ) Olfactive bulbs ([3]; 15 Min): 0.31 ± 0.03 % ID/g organ | Biodistribution (% ID/g organ) Olfactive bulbs ([3]; 24 Hrs): 0.09 ± 0.001 % ID/g organ | Biodistribution (% ID/g organ) Olfactive bulbs ([3]; 30 Min): 0.26 ± 0.03 % ID/g organ | Biodistribution (% ID/g organ) Olfactive bulbs ([3]; 48 Hrs): 0.07 ± 0.001 % ID/g organ | Biodistribution (% ID/g organ) Olfactive bulbs ([3]; 60 Min): 0.2 ± 0.07 % ID/g organ | Biodistribution (% ID/g organ) Olfactive bulbs ([3]; 180 Min): 0.16 ± 0.02 % ID/g organ | Biodistribution (% ID/g organ) Olfactive bulbs ([3]; 240 Min): 0.18 ± 0.03 % ID/g organ | Biodistribution (% ID/g organ) Olfactive bulbs ([3]; 360 Min): 0.16 ± 0.04 % ID/g organ | Biodistribution (% ID/g organ) Olfactive bulbs ([3]; 480 Min): 0.16 ± 0.03 % ID/g organ
